# Measurements from ChEMBL document CHEMBL5442741, “ASAP - In vitro kinase profile” (2024).
# “And” between values parts separate entries of the source, which are not always exact repeats. Equal values may be shown once.
# Experiments:
# [1] = target: Rho-associated protein kinase 1 (Homo sapiens) (UniProt Q13464); assay: Enzymatic radiometric [Km ATP] KinaseProfiler LeadHunter assay, kinase: ROCK-I, catalogue number: 14-601KP The assay has been performed by Eurofins Discovery.; conditions: ATP concentration 70.0 uM, Test compound concentration 10.0 uM
# [2] = target: Epidermal growth factor receptor (Homo sapiens) (UniProt P00533); assay: Enzymatic radiometric [Km ATP] KinaseProfiler LeadHunter assay, kinase: EGFR, catalogue number: 14-531KP The assay has been performed by Eurofins Discovery.; conditions: ATP concentration 10.0 uM, Test compound concentration 10.0 uM
# [3] = target: RAF proto-oncogene serine/threonine-protein kinase (Homo sapiens) (UniProt P04049); assay: Enzymatic radiometric [Km ATP] KinaseProfiler LeadHunter assay, kinase: c-RAF, catalogue number: 14-352KP The assay has been performed by Eurofins Discovery.; conditions: ATP concentration 120.0 uM, Test compound concentration 10.0 uM
# [4] = target: 5'-AMP-activated protein kinase catalytic subunit alpha-1 (Homo sapiens) (UniProt Q13131); assay: Enzymatic radiometric [Km ATP] KinaseProfiler LeadHunter assay, kinase: AMPK-alpha1, catalogue number: 14-840KP The assay has been performed by Eurofins Discovery.; conditions: ATP concentration 45.0 uM, Test compound concentration 10.0 uM
# [5] = target: Dual specificity mitogen-activated protein kinase kinase 1 (Homo sapiens) (UniProt Q02750); assay: Enzymatic radiometric [Km ATP] KinaseProfiler LeadHunter assay, kinase: MEK1, catalogue number: 14-429KP The assay has been performed by Eurofins Discovery.; conditions: ATP concentration 10.0 uM, Test compound concentration 10.0 uM
# [6] = target: Cyclin-dependent kinase 2/cyclin A (Homo sapiens) (UniProt P24941+P20248+P78396); assay: Enzymatic radiometric [Km ATP] KinaseProfiler LeadHunter assay, kinase: CDK2/cyclinA, catalogue number: 14-448KP The assay has been performed by Eurofins Discovery.; assay type: protein-complex assay; conditions: ATP concentration 45.0 uM, Test compound concentration 10.0 uM
# [7] = target: T1, Ephrin type-B receptor 4 (Homo sapiens) (UniProt P54760); assay: Enzymatic radiometric [Km ATP] KinaseProfiler LeadHunter assay, kinase: EphB4, catalogue number: 14-554KP The assay has been performed by Eurofins Discovery.; conditions: ATP concentration 10.0 uM, Test compound concentration 10.0 uM
# T1 sequence (whole entry): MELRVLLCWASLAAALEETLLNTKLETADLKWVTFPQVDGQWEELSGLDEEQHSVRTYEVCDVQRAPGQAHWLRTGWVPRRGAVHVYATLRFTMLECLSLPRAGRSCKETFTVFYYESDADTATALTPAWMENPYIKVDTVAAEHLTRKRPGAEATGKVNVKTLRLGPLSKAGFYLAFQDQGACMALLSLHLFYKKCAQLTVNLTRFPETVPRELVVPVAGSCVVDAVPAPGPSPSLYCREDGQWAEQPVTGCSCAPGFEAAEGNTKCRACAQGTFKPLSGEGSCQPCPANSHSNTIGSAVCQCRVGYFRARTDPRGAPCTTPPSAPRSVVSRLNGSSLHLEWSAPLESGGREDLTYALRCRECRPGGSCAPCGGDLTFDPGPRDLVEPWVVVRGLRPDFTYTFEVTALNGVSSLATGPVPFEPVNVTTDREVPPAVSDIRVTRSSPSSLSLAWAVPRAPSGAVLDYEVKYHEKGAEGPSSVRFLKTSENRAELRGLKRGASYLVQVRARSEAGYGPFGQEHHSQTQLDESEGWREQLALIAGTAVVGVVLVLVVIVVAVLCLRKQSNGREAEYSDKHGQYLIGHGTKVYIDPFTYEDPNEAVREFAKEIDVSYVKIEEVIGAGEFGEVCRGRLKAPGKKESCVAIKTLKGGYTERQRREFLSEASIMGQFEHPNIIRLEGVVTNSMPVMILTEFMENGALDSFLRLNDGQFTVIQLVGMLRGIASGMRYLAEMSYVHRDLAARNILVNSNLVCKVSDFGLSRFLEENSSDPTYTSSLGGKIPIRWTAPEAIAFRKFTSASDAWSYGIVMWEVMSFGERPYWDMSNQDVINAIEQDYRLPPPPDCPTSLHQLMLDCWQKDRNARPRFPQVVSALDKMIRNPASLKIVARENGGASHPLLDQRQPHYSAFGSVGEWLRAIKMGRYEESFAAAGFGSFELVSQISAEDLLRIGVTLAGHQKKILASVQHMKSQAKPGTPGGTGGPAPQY
# [8] = target: Tyrosine-protein kinase JAK2 (Homo sapiens) (UniProt O60674); assay: Enzymatic radiometric [Km ATP] KinaseProfiler LeadHunter assay, kinase: JAK2, catalogue number: 14-640KP The assay has been performed by Eurofins Discovery.; conditions: ATP concentration 45.0 uM, Test compound concentration 10.0 uM
# [9] = target: Mitogen-activated protein kinase 14 (Homo sapiens) (UniProt Q16539); assay: Enzymatic radiometric [Km ATP] KinaseProfiler LeadHunter assay, kinase: SAPK2a, catalogue number: 14-251KP The assay has been performed by Eurofins Discovery.; conditions: ATP concentration 90.0 uM, Test compound concentration 10.0 uM
# [10] = target: T2, Serine/threonine-protein kinase Chk1 (Homo sapiens) (UniProt O14757); assay: Enzymatic radiometric [Km ATP] KinaseProfiler LeadHunter assay, kinase: CHK1, catalogue number: 14-346KP The assay has been performed by Eurofins Discovery.; conditions: ATP concentration 90.0 uM, Test compound concentration 10.0 uM
# T2 sequence (whole entry): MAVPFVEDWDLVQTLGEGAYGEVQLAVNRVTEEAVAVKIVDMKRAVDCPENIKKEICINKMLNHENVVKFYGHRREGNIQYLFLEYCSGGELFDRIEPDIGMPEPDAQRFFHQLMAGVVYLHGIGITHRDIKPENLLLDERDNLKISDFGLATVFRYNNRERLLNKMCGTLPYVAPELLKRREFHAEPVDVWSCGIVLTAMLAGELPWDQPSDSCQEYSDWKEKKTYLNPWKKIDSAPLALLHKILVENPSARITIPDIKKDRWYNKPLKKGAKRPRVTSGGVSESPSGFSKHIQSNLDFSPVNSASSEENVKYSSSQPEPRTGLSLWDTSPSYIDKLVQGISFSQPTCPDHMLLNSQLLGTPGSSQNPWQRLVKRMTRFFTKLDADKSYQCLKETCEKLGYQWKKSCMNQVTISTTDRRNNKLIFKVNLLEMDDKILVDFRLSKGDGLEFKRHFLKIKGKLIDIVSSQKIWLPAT
# Sequence of Dual specificity mitogen-activated protein kinase kinase 1 (Homo sapiens) (Q02750 whole entry): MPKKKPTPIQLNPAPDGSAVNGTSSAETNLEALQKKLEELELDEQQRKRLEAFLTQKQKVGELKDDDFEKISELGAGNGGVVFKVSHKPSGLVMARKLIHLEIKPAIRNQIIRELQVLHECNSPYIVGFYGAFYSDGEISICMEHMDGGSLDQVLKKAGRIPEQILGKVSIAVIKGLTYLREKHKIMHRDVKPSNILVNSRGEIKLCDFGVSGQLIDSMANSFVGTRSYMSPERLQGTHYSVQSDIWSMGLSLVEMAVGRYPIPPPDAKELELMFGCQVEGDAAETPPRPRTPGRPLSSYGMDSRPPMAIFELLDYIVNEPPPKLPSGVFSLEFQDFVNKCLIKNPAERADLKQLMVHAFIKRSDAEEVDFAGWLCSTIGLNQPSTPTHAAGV
# Sequence of Epidermal growth factor receptor (Homo sapiens) (P00533 whole entry): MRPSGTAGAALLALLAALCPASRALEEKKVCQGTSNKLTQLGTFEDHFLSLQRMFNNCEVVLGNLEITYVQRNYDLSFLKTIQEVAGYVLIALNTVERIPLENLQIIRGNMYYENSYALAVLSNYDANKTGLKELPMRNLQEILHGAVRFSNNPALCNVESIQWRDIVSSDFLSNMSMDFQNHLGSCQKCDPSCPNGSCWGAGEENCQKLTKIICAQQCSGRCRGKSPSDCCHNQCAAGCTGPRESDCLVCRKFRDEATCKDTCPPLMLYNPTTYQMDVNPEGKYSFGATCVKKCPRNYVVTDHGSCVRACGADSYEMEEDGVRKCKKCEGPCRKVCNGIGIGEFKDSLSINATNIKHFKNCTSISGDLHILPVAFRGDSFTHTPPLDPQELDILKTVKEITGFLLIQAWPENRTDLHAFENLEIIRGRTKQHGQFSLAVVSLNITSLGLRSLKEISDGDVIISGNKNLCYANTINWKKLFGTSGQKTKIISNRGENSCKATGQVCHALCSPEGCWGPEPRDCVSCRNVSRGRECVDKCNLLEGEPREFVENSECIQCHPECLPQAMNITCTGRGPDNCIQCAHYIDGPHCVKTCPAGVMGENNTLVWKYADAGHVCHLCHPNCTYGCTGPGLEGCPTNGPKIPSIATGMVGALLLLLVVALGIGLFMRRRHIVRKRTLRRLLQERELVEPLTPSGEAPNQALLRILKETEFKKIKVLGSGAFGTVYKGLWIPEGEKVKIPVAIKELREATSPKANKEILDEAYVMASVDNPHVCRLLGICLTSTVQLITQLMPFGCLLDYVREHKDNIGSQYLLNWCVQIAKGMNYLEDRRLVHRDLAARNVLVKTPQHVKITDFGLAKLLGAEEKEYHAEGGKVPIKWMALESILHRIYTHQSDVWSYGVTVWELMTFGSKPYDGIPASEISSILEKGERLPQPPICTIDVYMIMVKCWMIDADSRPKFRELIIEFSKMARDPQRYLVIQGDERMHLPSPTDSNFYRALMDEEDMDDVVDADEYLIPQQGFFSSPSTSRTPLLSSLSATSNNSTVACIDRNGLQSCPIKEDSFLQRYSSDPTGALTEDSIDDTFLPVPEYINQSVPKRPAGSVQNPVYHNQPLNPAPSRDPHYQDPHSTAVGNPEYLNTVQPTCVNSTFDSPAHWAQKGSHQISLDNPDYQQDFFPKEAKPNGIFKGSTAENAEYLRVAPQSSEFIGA
# Sequence of Mitogen-activated protein kinase 14 (Homo sapiens) (Q16539 whole entry): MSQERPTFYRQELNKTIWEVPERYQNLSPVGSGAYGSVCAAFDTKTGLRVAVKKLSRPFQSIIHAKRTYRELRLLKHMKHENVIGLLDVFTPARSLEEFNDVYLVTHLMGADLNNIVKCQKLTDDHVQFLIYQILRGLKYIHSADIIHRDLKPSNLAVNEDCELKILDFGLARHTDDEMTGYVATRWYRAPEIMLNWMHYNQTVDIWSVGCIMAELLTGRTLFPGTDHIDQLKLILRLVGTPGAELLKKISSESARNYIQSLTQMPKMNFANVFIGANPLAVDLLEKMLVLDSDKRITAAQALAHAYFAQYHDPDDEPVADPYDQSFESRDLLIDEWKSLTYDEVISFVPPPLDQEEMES
# Sequence of Tyrosine-protein kinase JAK2 (Homo sapiens) (O60674 whole entry): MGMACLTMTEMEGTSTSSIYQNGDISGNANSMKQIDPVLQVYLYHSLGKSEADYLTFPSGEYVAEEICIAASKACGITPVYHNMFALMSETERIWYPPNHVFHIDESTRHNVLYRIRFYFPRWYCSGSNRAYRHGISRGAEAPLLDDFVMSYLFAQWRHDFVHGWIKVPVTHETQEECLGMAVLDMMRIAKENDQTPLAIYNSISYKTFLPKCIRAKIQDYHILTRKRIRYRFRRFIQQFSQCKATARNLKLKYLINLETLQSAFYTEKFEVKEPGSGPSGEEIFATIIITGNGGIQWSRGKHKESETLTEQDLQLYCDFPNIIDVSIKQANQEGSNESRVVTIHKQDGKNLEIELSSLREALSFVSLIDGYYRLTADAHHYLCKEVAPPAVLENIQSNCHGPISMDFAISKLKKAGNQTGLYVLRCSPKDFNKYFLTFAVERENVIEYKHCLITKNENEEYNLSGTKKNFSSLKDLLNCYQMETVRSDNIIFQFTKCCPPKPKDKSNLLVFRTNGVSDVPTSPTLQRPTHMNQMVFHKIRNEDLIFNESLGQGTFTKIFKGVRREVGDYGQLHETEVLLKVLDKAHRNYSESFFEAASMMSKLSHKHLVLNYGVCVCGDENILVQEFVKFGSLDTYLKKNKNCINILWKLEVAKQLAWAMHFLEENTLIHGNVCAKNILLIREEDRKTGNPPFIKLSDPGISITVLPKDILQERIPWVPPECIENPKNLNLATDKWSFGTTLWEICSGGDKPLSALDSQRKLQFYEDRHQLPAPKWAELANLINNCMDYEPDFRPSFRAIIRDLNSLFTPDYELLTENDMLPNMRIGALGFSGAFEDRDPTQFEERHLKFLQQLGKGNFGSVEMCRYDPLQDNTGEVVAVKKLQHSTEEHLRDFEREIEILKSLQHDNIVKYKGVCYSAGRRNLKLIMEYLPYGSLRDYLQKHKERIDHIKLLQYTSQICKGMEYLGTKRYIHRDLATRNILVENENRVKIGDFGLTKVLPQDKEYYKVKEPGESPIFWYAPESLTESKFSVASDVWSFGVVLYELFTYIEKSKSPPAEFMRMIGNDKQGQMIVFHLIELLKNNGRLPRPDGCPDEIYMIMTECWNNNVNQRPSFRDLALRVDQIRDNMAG
# Sequence of RAF proto-oncogene serine/threonine-protein kinase (Homo sapiens) (P04049 whole entry): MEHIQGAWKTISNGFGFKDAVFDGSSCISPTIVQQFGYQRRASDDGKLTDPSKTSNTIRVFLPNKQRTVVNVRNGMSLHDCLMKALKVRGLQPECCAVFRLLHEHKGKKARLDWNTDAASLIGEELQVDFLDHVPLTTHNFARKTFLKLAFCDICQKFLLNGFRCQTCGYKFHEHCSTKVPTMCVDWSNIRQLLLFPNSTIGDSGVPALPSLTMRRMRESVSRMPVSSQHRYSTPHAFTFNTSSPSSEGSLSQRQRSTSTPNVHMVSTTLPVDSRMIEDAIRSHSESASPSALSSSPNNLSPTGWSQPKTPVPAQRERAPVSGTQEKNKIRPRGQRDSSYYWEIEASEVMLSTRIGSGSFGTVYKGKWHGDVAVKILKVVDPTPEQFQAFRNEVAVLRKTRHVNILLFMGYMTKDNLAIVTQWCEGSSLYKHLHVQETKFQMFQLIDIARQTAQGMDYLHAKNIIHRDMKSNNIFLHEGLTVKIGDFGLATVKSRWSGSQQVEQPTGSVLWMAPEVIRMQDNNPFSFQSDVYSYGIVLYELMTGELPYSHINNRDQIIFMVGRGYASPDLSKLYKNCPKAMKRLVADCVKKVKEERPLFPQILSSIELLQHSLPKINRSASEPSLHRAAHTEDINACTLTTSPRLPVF
# Sequence of Rho-associated protein kinase 1 (Homo sapiens) (Q13464 2-1354 limits assumed): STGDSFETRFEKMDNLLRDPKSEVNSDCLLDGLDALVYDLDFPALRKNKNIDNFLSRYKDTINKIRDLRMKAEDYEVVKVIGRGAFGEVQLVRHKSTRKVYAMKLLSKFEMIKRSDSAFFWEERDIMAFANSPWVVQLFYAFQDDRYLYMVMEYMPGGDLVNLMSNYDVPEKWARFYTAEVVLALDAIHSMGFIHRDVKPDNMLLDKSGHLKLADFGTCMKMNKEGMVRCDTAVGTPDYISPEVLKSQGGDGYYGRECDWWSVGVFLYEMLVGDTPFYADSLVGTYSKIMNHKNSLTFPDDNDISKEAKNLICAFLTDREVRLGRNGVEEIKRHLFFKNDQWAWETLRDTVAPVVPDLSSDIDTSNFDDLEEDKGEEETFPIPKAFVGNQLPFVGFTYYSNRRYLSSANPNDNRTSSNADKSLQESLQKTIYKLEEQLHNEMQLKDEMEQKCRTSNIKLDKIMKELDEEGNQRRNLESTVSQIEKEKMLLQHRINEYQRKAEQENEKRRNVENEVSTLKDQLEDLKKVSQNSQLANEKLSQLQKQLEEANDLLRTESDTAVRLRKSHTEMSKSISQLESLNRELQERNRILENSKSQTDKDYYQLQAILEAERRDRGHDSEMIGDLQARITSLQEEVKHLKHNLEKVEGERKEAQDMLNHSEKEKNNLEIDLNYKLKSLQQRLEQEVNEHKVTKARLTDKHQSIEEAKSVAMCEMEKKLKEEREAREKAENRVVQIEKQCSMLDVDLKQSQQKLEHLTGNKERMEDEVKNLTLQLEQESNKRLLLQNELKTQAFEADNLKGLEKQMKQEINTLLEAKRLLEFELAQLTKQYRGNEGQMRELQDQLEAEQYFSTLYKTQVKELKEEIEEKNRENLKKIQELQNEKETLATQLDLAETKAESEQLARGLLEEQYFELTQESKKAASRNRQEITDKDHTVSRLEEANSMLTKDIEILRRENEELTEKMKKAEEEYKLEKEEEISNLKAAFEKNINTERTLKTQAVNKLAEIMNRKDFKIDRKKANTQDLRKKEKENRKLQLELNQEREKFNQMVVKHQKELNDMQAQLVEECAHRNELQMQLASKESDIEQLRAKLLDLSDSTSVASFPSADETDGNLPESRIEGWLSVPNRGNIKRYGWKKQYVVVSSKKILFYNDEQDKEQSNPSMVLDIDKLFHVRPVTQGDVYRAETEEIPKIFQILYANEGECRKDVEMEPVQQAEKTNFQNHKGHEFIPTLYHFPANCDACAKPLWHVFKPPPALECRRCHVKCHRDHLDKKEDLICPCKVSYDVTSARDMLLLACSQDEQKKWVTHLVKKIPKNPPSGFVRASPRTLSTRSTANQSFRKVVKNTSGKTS
Structure (SMILES),Activity [1],Activity [2],Activity [3],Activity [4],Activity [5],Activity [6],Activity [7],Activity [8],Activity [9],Activity [10]
C[C@H](C(=O)O)[C@@H](NC(=O)c1ncnc2[nH]ccc12)c1ccc(Br)cc1,90%,93%,108%,93%,89%,102%,105%,99%,103%,99%
Cn1ncc(-c2cc3c(N[C@@H](c4ccc5c(n4)OCCO5)C(C)(C)C)ncnc3[nH]2)c1C#N,129%,99%,87%,109%,98%,114%,115%,140%,106%,125%
COc1ccc([C@@H](Cc2nnn[nH]2)NC(=O)c2ncnc3[nH]ccc23)cc1,93%,96%,90%,101%,92%,97%,88%,102%,100%,95%
CC(C)[C@@H](Nc1ncnc2[nH]ccc12)c1ccc2c(c1)S(=O)(=O)CCC2,110%,102%,97%,94%,97%,96%,91%,110%,108%,84%
CC(C)[C@@H](Nc1ncnc2[nH]c(C(=O)N[C@@H]3CCN(C)C3)cc12)c1ccc2c(c1)S(=O)(=O)CCC2,98%,102%,105%,107%,107%,117%,86%,106%,97%,118%
COc1ccc([C@H](Cc2nnn[nH]2)NC(=O)c2ncnc3[nH]ccc23)cc1,103%,97%,103%,97%,100%,113%,106%,116%,103%,110%
CC(C)[C@H](Nc1ncnc2[nH]c(-c3cnn(C)c3C#N)cc12)c1ccc2c(n1)OCCO2,115%,90%,97%,111%,97%,104%,89%,115%,99%,119%
CC(C)[C@@H](Nc1ncnc2[nH]c(-c3cnn(C)c3C#N)cc12)c1ccc2c(n1)OCCO2,93% and 107%,81% and 77%,81% and 90%,116% and 99%,99% and 103%,95% and 104%,75% and 91%,101% and 123%,103% and 101%,108% and 120%

# Further lines, results first:
Activity [1],Activity [2],Activity [3],Activity [4],Activity [5],Activity [6],Activity [7],Activity [8],Activity [9],Activity [10],Structure (SMILES)
103%,87%,93%,102%,99%,107%,98%,111%,98%,102%,Cc1nn(C)cc1-c1cc2c(N[C@H](c3ccc4c(c3)S(=O)(=O)CCC4)C(C)C)ncnc2[nH]1
102%,97%,100%,86%,97%,98%,92%,114%,97%,111%,CNCc1cc(-c2cc3c(N[C@@H](c4ccc5c(c4)S(=O)(=O)CCC5)C(C)C)ncnc3[nH]2)co1
104%,98%,102%,104%,97%,95%,97%,94%,103%,107%,CNC(=O)Cn1cc(-c2cc3c(N[C@@H](c4ccc5c(c4)S(=O)(=O)CCC5)C(C)C)ncnc3[nH]2)cn1
115%,95%,107%,104%,94%,102%,86%,99%,107%,110%,CC(C)[C@H](Nc1ncnc2[nH]ccc12)c1ccc2c(c1)S(=O)(=O)CCC2
